We go through one compound from patent US9283279B2, “Targeted polymeric conjugates and uses thereof” (priority 2011, dated 2016).

The subject of data set [1] is PC3 human prostate adenocarcinoma cells. Nature of the data set: PC3 cell viability / proliferation assay (MTT). The settings on record: PC-3, 72 hours incubation. It is filed as cell-based. Here is the method: PC3 cells were plated onto 96 well plate (5×10^3 cells/well) in DMEM supplemented with 5% FBS and incubated for 24 h (37° C.; 5% CO2). […] Following incubation, PC3 cells were counted by MTT.

The nature of data set [2]: Pharmacokinetic studies in mice. It is filed as in vivo, female Balb/C mice. Here is the method:
The mice were randomly divided in three groups of 10 animals. […] To 50 μL of plasma, 350 μL of CH3CN was added for protein precipitation and the resulting mixture was centrifuged at 20,000 g for 5 minutes. A 300 μL aliquot of the supernatant was collected and freeze-dried. The residue was dissolved in 50 μL of CH3OH and analyzed by RP-HPLC under the condition reported hereinabove.

Data set [3] deals with 4T1-mCherry murine mammary adenocarcinoma in the tibia. Format: in vivo, Balb/c female mice. The settings on record: 4T1-mCherry tumors in the tibia.
For data set [4], the system named is 4T1-mCherry tumors in the tibia. Nature of the data set: Microvessel density (CD34 staining), 4T1-mCherry model. The settings on record: compared to saline-treated control group. It is filed as in vivo, Balb/c female mice.
Description: Immunohistochemistry of tumors in the tibia was performed using samples fixed with 4% paraformaldehyde, following decalcification in EDTA and paraffin embedding by the standard procedure. Paraffin sections of 4 μm were de-paraffinized, rehydrated, and stained by hematoxylin and eosin (H&E). For CD34 staining, slides were deparaffinized and pre-treated with 10 mM citrate buffer, pH=6.0, for 20 minutes in a steam pressure cooker (Decloaking Chamber, BioCare Medical, Walnut Creek, Calif.).
All further steps were performed at room temperature in a hydrated chamber. Slides were covered with Peroxidase Block (Merck, Germany) for 10 minutes to quench endogenous peroxidase activity, followed by incubation with 2% of horse serum in 50 mM Tris-HCl, pH 7.4, for 30 minutes to block non-specific binding sites. Primary rat anti-murine CD34 antibody (MEC 14.7 1:50 dilution; Abcam, Cambridge, Mass.) was applied in 1% rabbit serum albumin in Tris-HCl, pH 7.4 at 4° overnight. Slides were washed in 50 mM TrisHCl, pH 7.4 and rabbit anti-rat antibody (1:750 dilution; Vector Laboratories, Calif., USA) was applied for 30 minutes. Following further washing, immunoperoxidase staining was developed using HistoMark TrueBlue peroxidase system (KPL, USA) per the manufacturer instructions and counterstained with safranin.
For data set [5] the following is noted: blood samples on day 11; 15 mg/kg PTX or equivalent.
Description: Samples were counted no longer than five minutes after blood was drawn from mice. Ten μl of blood samples were mixed with 90 μl of track solution (1% acetic acid in DDW), and cells were counted by a Z1 Coulter® Particle Counter (Beckman Coulter™). Data is expressed as mean±s.e.m.
Data set [6] relates to circulating endothelial cells (CEC) and circulating endothelial progenitor (CEP). The note with it: day 11 of treatment.
The mark [7] stands for this setting: female, mouse, plasma, iv, i.v. 10 mg/Kg PTX equiv., Balb/C mice.

As for `CC(=O)O[C@H]1C(=O)[C@@]2(C)[C@H]([C@H](OC(=O)c3ccccc3)[C@]3(O)C[C@H](OC(=O)[C@H](O)[C@@H](NC(=O)c4ccccc4)c4ccccc4)C(C)=C1C3(C)C)[C@]1(OC(C)=O)CO[C@@H]1C[C@@H]2O` [PTX, Paclitaxel], the IC50 in data set [1] lay in the range of 25 to 60 nM. Besides, in data set [2] (setting [7]), the Vd is 0.161 ± 0.0021 L and the clearance was 7.4 ± 1.5 mL/min. Moreover, the half-life in data set [2] (female, mouse, plasma, iv, i.v. 10 mg/Kg PTX equiv., Balb/C mice, read-out: T1/2β (elimination half-life)) was found to be 15.1 min. Also, the T1/2α in data set [2] (i.v. 10 mg/Kg PTX equiv., Balb/C mice) stood at 1.3 ± 0.3. In addition, the “time at which PTX was not detectable” value in data set [2] (serum PTX by RP-HPLC, i.v. 10 mg/Kg) was 60 min. Moreover, in data set [3], the “H&E histology of the tibia” value is “tumor filled the bone marrow space and destroyed both trabecular and cortical bone”. The “reduction in micro-vessel density (MVD)” value in data set [4] is listed as “about 50%”. Also, the WBC counts entry in data set [5] was “significant decrease”. Moreover, in data set [6], the “viable CEP levels” value is recorded as “increase”.

Broadly, the IC50 is the concentration needed to halve the response being measured. Read a low IC50 as greater potency in that assay. What is called Vd is a proportionality between amount in the body and measured concentration, not a real space. As a reminder, the clearance is the volume of plasma or blood freed of the substance per unit of time.
